Patent US7332503B2, “Aporphine esters and their use in therapy” (Axon Biochemicals B.V., priority 2000, dated 2008)
Structures can show the parent of a compound that is named as a salt.

Legend:
[1] = literature, animal models; cited from earlier work
rat [2] = test: Transdermal experiment in one single rat (shaved neck); assay type: in vivo
Procedure: The test animals used were male albino Wistar rats weighing between 200 and 370 g. Food and water were available to the rats all the time. They were set in a normal 12 hour day night rhythm. Before the operation the animals resided in a larger cage with a group of rats. During the experiments they were alone in a cage with the dimensions 25*25*35 cm. The blood sampling was performed in freely moving animals, which were all conscious. In this way potential behavioral changes from the treatment could be registered. The operation consisted of the application of a cannula in the vena jugularis. After an experiment the rats were given at least 24 hours to recover.
This amount of cream was applied with a spatula on the shaved neck of the rat, weighing about 350 g.
After one hour and 10 minutes, about five droplets of DMSO were smeared on to the rat neck.
In a comparative experiment 7 mg of Apomorphine hydrochloride solid was dissolved in DMSO (70 microliters).

rat [3] = test: Dopaminergic activity in rats after s.c. injection in Viscoleo; assay type: in vivo; settings: two rats, ca 3.7 mg/kg (corr. to 2 mg/kg ApoxHCl), 3.7 mg/mL in Viscoleo
Procedure: The maximum volume of an oil solution/suspension to be injected intramuscularly or subcutaneously is 2-4 mL. This is feasible for the preparations of the aporphine derivatives of the present invention. The accumulated daily dose used in apomorphine s.c. therapy in Parkinson's disease is 4-10 times about 1-4 mg (4-40 mg/day). For the animal experiments performed in the pharmacological research, which led to the present invention, ca 2 mg Apomorphine×HCl (or equivalent molar amount of compounds according to Formula I above, as the base or as a suitable salt or ion-pair) was dissolved in 1 mL of an oil (sesame oil, Viscoleo or another approved oil) and the mixture was gently heated (max 50° C.) shaken in a test tube shaker and ultrasonicated for a short time (minutes) until the mixture became a homogeneous solution or suspension. If necessary, the test compound was first dissolved in 50-300 μL DMSO, water, t-BuOH, PEG, benzylbenzoate, or another suitable and approved solvent or mixtures thereof, before adding the oil (see above) to a total volume of 1 mL.
First 2 eq. were added and after a night at room temperature the solvent was evaporated and the residue was redissolved in CH2Cl2 and a sample was taken with a pipette and chromatographed on a pipette filled with Al2O3. Elution was performed with first CH2Cl2 and then with CH2Cl2:EtOH (9:1). […]

[4] = background statement; cited from earlier work
[5] = comparative: 2 mg in 20 microliters DMSO on shaved neck
[6] = about 5 mg in Fenuril cream plus DMSO

Compound: CC(=O)Oc1ccc2c(c1OC(C)=O)-c1cccc3c1C(C2)N(C)CC3 (centres unmarked) [10,11-Di-acetyl-apomorphine]
- activity relative to parent compound apomorphine [1]: almost as potent as apomorphine itself

Compound: CN1CCc2cccc3c2[C@H]1Cc1ccc(O)c(O)c1-3 [Apomorphine hydrochloride]
- dopaminergic activity after end of stereotypy (rat [2]; [5]): No other signs of dopaminergic activity
- duration of intense stereotypy (rat [2]; [5]): about two
- time to stereotypy (rat [2]; [5]): about 30 minutes

Compound: CCCCCCCCCCCCCCCC(=O)Oc1ccc2c(c1OC(=O)CCCCCCCCCCCCCCC)-c1cccc3c1C(C2)N(C)CC3 (centres unmarked) [di-C16-Apo]
- effect (dopaminergic activity) (rat [3]): No effect whatsoever

Compound: CN1CCc2cccc3c2C1Cc1ccc(OC(=O)C(C)(C)C)c(OC(=O)C(C)(C)C)c1-3 (centres unmarked) [dipivaloyl ester pro-drug]
- activity relative to parent compound apomorphine [1]: much less active than the parent compound

Compound: N[C@@H](Cc1ccc(O)c(O)c1)C(=O)O [levodopa]
- fraction of drug converted to DA in peripheral tissues [4]: about 95%
- fraction of drug that enters the brain [4]: less than 1%

Compound: Mono-Butyryl Apomorphine [Example 2]
- behaviour the next day at 10:00 a.m. (rat [2]; [6]): still active showing signs of chewing
- time at which chewing, sniffing and yawning were still observed (rat [2]; [6]): ~6 h
- duration of stereotypy (rat [2]; about 5 mg in Fenuril cream, after DMSO): at least two
- time to typical dopaminergic syndrome including locomotor activity (rat [2]; about 5 mg in Fenuril cream, time after DMSO): About 30 minutes
- time to intense yawning, sniffing, penile licking and chewing (rat [2]; about 5 mg in Fenuril cream, time after about five droplets of DMSO smeared on neck): about 10 minutes
- dopaminergic effects (rat [2]; about 5 mg in about 120 mg Fenuril hand cream on shaved neck, first hour, before DMSO): Dopaminergic effects were seen but they were weak
